Source: patent publication US11760752B2, “Carboxylic acid, acyl sulfonamide and acyl sulfamide-derivatized bicyclic aza-heteroaromatics as selective Mcl-1 inhibitors and as dual Mcl-1/Bcl-2 inhibitors” (University of Maryland, Baltimore, priority 2019, dated 2023)
Where two headings read alike, the source gives them in different places.

Columns and labels:
[1] = target: MCL-1 (Homo sapiens (Human), UniProt Q07820); assay: Fluorescence polarization competition assay (FPCA), displacement of FITC-Bak from MCL-1; format: binding
[2] = target: BCL-2 (Homo sapiens (Human), UniProt P10415); assay: Fluorescence polarization competition assay (FPCA), displacement of FITC-Bak from BCL-2; format: binding
Method: (§1) These values were determined from a fluorescence polarization competition assay involving a fluorescently labeled peptide (BAK) bound to the desired Bcl-2 anti-apoptotic protein. […] These inhibition constants are the concentrations at which the indazole derivatives can displace 50% of BAK from the indicated Bcl-2 anti-apoptotic proteins.
(§2) The concentrated peptide stocks were prepared in DMSO and the concentration of the peptide was determined in water at pH 8.0 using the extinction coefficient for amide-linked FITC of λ494=68,000 cm^−1M^−1.
(§3) The fluorescence polarization assays were performed in 96 well polypropylene F-bottom black microplates (Greiner Bio-One) with a final volume of 100 μL.
(§4) The fluorescence polarization competition assays were setup using a Biomek FXP Automated Liquid Handling System. […] The IC50 values were then converted to Ki values using an equation derived by Nikolovska-Coleska et al. All inhibitors were tested in triplicate.

[3] = target: T1, BCL-XL (Homo sapiens (Human), UniProt Q07817); assay: Fluorescence polarization competition assay (FPCA), displacement of FITC-Bak from BCL-XL; format: binding
Method: as §1, §2, §3, §4
Target sequence in this assay (Q07817 1-212): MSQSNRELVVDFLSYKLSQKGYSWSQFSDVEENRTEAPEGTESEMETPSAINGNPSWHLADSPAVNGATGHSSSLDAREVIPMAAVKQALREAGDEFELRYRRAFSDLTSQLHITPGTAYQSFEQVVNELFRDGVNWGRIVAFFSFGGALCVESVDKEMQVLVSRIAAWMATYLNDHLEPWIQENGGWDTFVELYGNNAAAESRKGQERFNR

[4] = target: T1, BCL-XL; settings: relative to BCL-2; cited from earlier work
Target sequence in this assay (Q07817 whole entry, species assumed): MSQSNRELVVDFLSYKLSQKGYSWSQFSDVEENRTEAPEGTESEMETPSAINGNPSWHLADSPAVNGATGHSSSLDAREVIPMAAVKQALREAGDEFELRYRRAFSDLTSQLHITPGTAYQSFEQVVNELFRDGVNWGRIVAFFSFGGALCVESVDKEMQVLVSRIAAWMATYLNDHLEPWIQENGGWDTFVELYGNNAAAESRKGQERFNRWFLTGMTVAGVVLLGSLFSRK

[5] = Table 5, heterocyclic core SAR, read-out: MCL-1 Ki
[6] = Table 3, FITC-Bak peptide displacement, read-out: MCL-1 Affinity Ki
[7] = Table 3, FITC-Bak peptide displacement, read-out: BCL-2 Affinity Ki
[8] = Table 3, FITC-Bak peptide displacement, read-out: BCL-XL Affinity Ki
[9] = Table 8, N-1-alkylated isomers, read-out: BCL-2 Ki

BCL-2, sequence (P10415 1-211): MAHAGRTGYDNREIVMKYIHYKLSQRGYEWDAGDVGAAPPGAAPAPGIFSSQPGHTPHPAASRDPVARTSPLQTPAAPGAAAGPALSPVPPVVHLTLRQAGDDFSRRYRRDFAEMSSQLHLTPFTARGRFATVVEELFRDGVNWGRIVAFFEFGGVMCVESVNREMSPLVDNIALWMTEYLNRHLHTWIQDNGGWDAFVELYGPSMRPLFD
MCL-1, sequence (Q07820 172-327): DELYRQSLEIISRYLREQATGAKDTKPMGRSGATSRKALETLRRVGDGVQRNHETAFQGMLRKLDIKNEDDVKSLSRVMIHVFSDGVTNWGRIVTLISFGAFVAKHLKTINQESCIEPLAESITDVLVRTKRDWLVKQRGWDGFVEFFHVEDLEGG

Row | Structure (SMILES) | Ki [1, 6] | Ki [2, 7] | Ki [3, 8] | other results
1 | Cc1cc(OCCCn2nc3ccc(Cl)cc3c2C(=O)O)cc(C)c1Cl [compound 10, 5-chloro-2-(3-(4-chloro-3,5-dimethylphenoxy)propyl)-2H-indazole-3-carboxylic acid] |  |  |  | Ki [1, 5]: > 10000 nM; Ki ([1]; read-out: MCL-1 Ki): > 10000 nM
2 | Cc1cc(Oc2ccc(Cn3nc(C(=O)NS(=O)(=O)c4ccc(NCc5cccnc5)c([N+](=O)[O-])c4)c4cc(Cl)ccc43)cc2)cc(C)c1Cl [NB-1-087] | 520 ± 30 nM |  |  | Ki ([2]; read-out: BCL-2 Affinity Ki): 611 ± 200 nM; Ki ([3]; read-out: BCL-XL Affinity Ki): 557 ± 80 nM
3 | Cc1cc(Oc2ccc(Cn3nc(C(=O)NS(=O)(=O)c4ccc([N+](=O)[O-])c(NCc5ccco5)c4)c4cc(Cl)ccc43)cc2)cc(C)c1Cl [CG-1-019] | 1140 ± 50 nM | 384 ± 30 nM | 325 ± 50 nM | 
4 | Cc1cc(OCCCn2nc(C(=O)NS(=O)(=O)c3ccc(NCc4ccco4)c([N+](=O)[O-])c3)c3cc(Cl)ccc32)cc(C)c1Cl [BD-3-180] | 480 ± 30 nM | 572 ± 50 nM | 597 ± 180 nM | 
5 | Cc1cc(Oc2ccc(Cn3nc(C(=O)NS(=O)(=O)c4ccc(NCCN5CCOCC5)c([N+](=O)[O-])c4)c4cc(Cl)ccc43)cc2)cc(C)c1Cl [NB-1-088] | 750 ± 60 nM |  |  | Ki ([2]; read-out: BCL-2 Affinity Ki): 738 ± 190 nM
6 | Cc1cc(Oc2ccc(Cn3nc(C(=O)O)c4cc(Cl)ccc43)cc2)cc(C)c1Cl [compound 50, 5-chloro-1-(4-(4-chloro-3,5-dimethylphenoxy)benzyl)-1H-indazole-3-carboxylic acid] |  |  |  | Ki ([1]; Table 8, N-1-alkylated isomers, read-out: MCL-1 Ki): 1580 ± 360 nM
7 | CC1(C)CCC(CN2CCN(c3ccc(C(=O)NS(=O)(=O)c4ccc(NCC5CCOCC5)c([N+](=O)[O-])c4)c(Oc4cnc5[nH]ccc5c4)c3)CC2)=C(c2ccc(Cl)cc2)C1 [venetoclax, Venetoclax] |  |  |  | BCL-XL affinity, fold lower than BCL-2 [4]: more than 100 fold
8 | Cc1cc(OCCCn2c(C(=O)O)nc3ccccc32)cc(C)c1Cl [compound 5, 1-(3-(4-chloro-3,5-dimethylphenoxy)propyl)-1H-benzo[d]imidazole-2-carboxylic acid] |  |  |  | Ki [1, 5]: > 10000 nM; Ki ([1]; read-out: MCL-1 Ki): > 10000 nM
9 | Cc1cc(Oc2ccc(Cn3nc(C(=O)NS(=O)(=O)c4ccc(Cl)cc4)c4cc(Cl)ccc43)cc2)cc(C)c1Cl [NB-1-084] | 280 ± 10 nM | 1090 ± 450 nM | 840 ± 228 nM | 
10 | Cc1cc(OCCCn2nc(C(=O)NS(=O)(=O)c3ccc(NCC4CCCO4)c([N+](=O)[O-])c3)c3cc(Cl)ccc32)cc(C)c1Cl (stereo not drawn) [BD-3-184] | 690 ± 30 nM | 1170 ± 160 nM | 840 ± 140 nM | 
11 | Cc1cc(OCCCc2c(C(=O)O)n(C)c3cc(Cl)ccc23)cc(C)c1Cl |  |  |  | Ki ([2]; Table 4, FPCA data for control compounds, read-out: BCL-2 Ki): > 10000 nM; Ki ([3]; Table 4, FPCA data for control compounds, read-out: BCL-XL Ki): 1200 ± 160 nM
12 | Cc1cc(Oc2ccc(Cn3nc4ccc(Cl)cc4c3C(=O)O)cc2)cc(C)c1Cl [compound 12, 5-chloro-2-(4-(4-chloro-3,5-dimethylphenoxy)benzyl)-2H-indazole-3-carboxylic acid] |  |  |  | Ki [1, 5]: 2360 ± 290 nM; Ki ([1]; read-out: MCL-1 Ki): 2360 ± 290 nM; Ki ([2]; read-out: BCL-2 Ki): 1450 ± 75 nM
13 | Cc1cc(OCCCn2nc(C(=O)O)c3cc(Cl)ccc32)cc(C)c1Cl [BD-3-173] | 5800 ± 360 nM |  |  | Ki ([2]; read-out: BCL-2 Affinity Ki): 5790 ± 620 nM
14 | Cc1cc(Oc2ccc(Cn3nc(C(=O)O)c4cc(Cl)ccc43)cc2)cc(C)c1Cl [NB-1-070] | 910 ± 50 nM |  |  | Ki ([2]; read-out: BCL-2 Affinity Ki): 1040 ± 190 nM; Ki ([3]; read-out: BCL-XL Affinity Ki): 2010 ± 350 nM
15 | Cc1cc(Oc2ccc(Cn3nc4cc(Cl)ccc4c3C(=O)O)cc2)cc(C)c1Cl [compound 49, 6-chloro-2-(4-(4-chloro-3,5-dimethylphenoxy)benzyl)-2H-indazole-3-carboxylic acid] |  |  |  | Ki [1, 5]: 1760 ± 550 nM; Ki ([1]; read-out: MCL-1 Ki): 1760 ± 550 nM
16 | Cc1cc(OCCCn2nc(C(=O)NS(=O)(=O)c3ccc(N4CCOCC4)c([N+](=O)[O-])c3)c3cc(Cl)ccc32)cc(C)c1Cl [BD-3-183] | 920 ± 30 nM | 868 ± 130 nM | 1060 ± 340 nM | 
17 | Cc1cc(Oc2ccc(Cn3nc(C(=O)NS(=O)(=O)c4ccc([N+](=O)[O-])c(N5CCOCC5)c4)c4cc(Cl)ccc43)cc2)cc(C)c1Cl [CG-1-016] | 370 ± 20 nM | 451 ± 40 nM | 436 ± 70 nM | 
18 | Cc1cc(OCCCn2nc(C(=O)NS(=O)(=O)c3ccc(NCC4CCN(C)CC4)c([N+](=O)[O-])c3)c3cc(Cl)ccc32)cc(C)c1Cl [BD-3-190] |  |  |  | Ki ([2]; read-out: BCL-2 Affinity Ki): 8930 ± 290 nM
19 | Cc1cc(Oc2ccc(Cn3nc(C(=O)NS(=O)(=O)c4ccc(NCc5cccnc5)c([N+](=O)[O-])c4)c4cc(Cl)ccc43)cc2)cc(C)c1Cl [compound 52, 5-chloro-1-(4-(4-chloro-3,5-dimethylphenoxy)benzyl)-N-((3-nitro-4-((pyridin-3-ylmethyl)amino)phenyl)sulfonyl)-1H-indazole-3-carboxamide] |  |  |  | Ki [1]: > 10000 nM; BCL-2 binding affinity (in words) [2]: within the nanomolar range; Ki [2, 9]: 690 ± 110 nM; BCL-XL affinity (in words) [3]: no affinity
20 | Cc1cc(Oc2ccc(Cn3nc(C(=O)NS(=O)(=O)c4ccc([N+](=O)[O-])c(NCc5cccnc5)c4)c4cc(Cl)ccc43)cc2)cc(C)c1Cl [CG-1-018] | 480 ± 30 nM | 384 ± 30 nM | 436 ± 70 nM | 
21 | Cc1cc(Oc2ccc(Cn3nc(C(=O)NS(=O)(=O)c4ccc(N5CCOCC5)c([N+](=O)[O-])c4)c4cc(Cl)ccc43)cc2)cc(C)c1Cl [compound 51, 5-chloro-1-(4-(4-chloro-3,5-dimethylphenoxy)benzyl)-N-((4-morpholino-3-nitrophenyl)sulfonyl)-1H-indazole-3-carboxamide] |  |  |  | Ki [1]: 2220 ± 200 nM; BCL-2 binding affinity (in words) [2]: within the nanomolar range; Ki [2, 9]: 620 ± 120 nM; BCL-XL affinity (in words) [3]: no affinity
22 | Cc1cc(OCCn2nc3ccc(Cl)cc3c2C(=O)O)cc(C)c1Cl [compound 11, 5-chloro-2-(2-(4-chloro-3,5-dimethylphenoxy)ethyl)-2H-indazole-3-carboxylic acid] |  |  |  | Ki [1, 5]: > 10000 nM; Ki ([1]; read-out: MCL-1 Ki): > 10000 nM
23 | CCN1CCN(c2cc(S(=O)(=O)NC(=O)c3nn(Cc4ccc(Oc5cc(C)c(Cl)c(C)c5)cc4)c4ccc(Cl)cc34)ccc2[N+](=O)[O-])CC1 [CG-1-023] | 12400 ± 370 nM |  |  | Ki ([2]; read-out: BCL-2 Affinity Ki): 74300 ± 11500 nM
24 | Cc1cc(Oc2ccc(Cn3nc(C(=O)NS(=O)(=O)c4ccc(N5CCOCC5)c([N+](=O)[O-])c4)c4cc(Cl)ccc43)cc2)cc(C)c1Cl [NB-1-086] | 320 ± 10 nM |  |  | Ki ([2]; read-out: BCL-2 Affinity Ki): 569 ± 40 nM; Ki ([3]; read-out: BCL-XL Affinity Ki): 840 ± 228 nM
25 | Cc1cc(Oc2ccc(Cn3nc(C(=O)NS(=O)(=O)c4ccc(NCc5ccco5)c([N+](=O)[O-])c4)c4cc(Cl)ccc43)cc2)cc(C)c1Cl [NB-1-089] | 260 ± 10 nM | 266 ± 20 nM | 551 ± 70 nM | 
26 | Cc1cc(OCCCn2nc(C(=O)NS(=O)(=O)c3ccc(NCc4cccnc4)c([N+](=O)[O-])c3)c3cc(Cl)ccc32)cc(C)c1Cl [BD-3-181] | 840 ± 50 nM | 694 ± 90 nM | 574 ± 110 nM | 
